The experiment addresses BRD4 (Homo sapiens (Human), UniProt O60885). To be noted: read-out: BRD4 IC50 (μM gmean).
As for `COC(=O)N1c2ccc3c(nc(Cc4ccccc4)n3[C@H]3CC[C@@H](c4nnn[nH]4)CC3)c2CC[C@@H]1C` [Example 284], the IC50 lay in the range of 1 to 1000 µM.

In the case of `COC(=O)N1c2ccc3c(nc(Cc4ccccc4)n3CC(=O)O)c2CC[C@@H]1C` [Example 285, (S)-2-(2-benzyl-6-(methoxycarbonyl)-7-methyl-6,7,8,9-tetrahydro-3H-imidazo[4,5-f]quinolin-3-yl)acetic Acid], the concentration for half-maximal inhibition (IC50) is 1 to 1000 µM.

In the case of `COC(=O)N1c2ccc3c(nc(Cc4ccccc4)n3CC(N)=O)c2CC[C@@H]1C` [Example 286, methyl (S)-3-(2-amino-2-oxoethyl)-2-benzyl-7-methyl-3,7,8,9-tetrahydro-6H-imidazo[4,5-f]quinoline-6-carboxylate], the IC50 was 1 to 1000 µM.

Consider `COC(=O)N1c2ccc3c(nc(Cc4ccccc4)n3CCO)c2CC[C@@H]1C` [Example 287, methyl (S)-2-benzyl-3-(2-hydroxyethyl)-7-methyl-3,7,8,9-tetrahydro-6H-imidazo[4,5-f]quinoline-6-carboxylate], for which the IC50 fell in the range of 1 to 1000 µM.

For the compound `COC(=O)N1c2ccc3c(nc(CCn4cccn4)n3CCNCc3cnco3)c2CC[C@@H]1C` [Example 292], the IC50 is 1 to 1000 µM.

For the compound `COC(=O)N1c2ccc3c(nc(CCn4cccn4)n3CCNCc3cnn(C)c3)c2CC[C@@H]1C` [Example 293], the IC50 was 1 to 1000 µM.

As to `COC(=O)N1c2ccc3c(nc(CCn4cccn4)n3CCNCc3cccnc3)c2CC[C@@H]1C` [Example 294], the IC50 lay within 1 to 1000 µM.

Regarding `COC(=O)N1c2ccc3c(nc(CCn4cccn4)n3CCN(C)CCO)c2CC[C@@H]1C` [Example 296], the IC50 lay in the range of 1 to 1000 µM.

As to `COC(=O)N1c2ccc3c(nc(CCn4cccn4)n3CCN(C)CC(=O)N(C)C)c2CC[C@@H]1C` [Example 297], the IC50 lay in the range of 1 to 1000 µM.

Consider `COC(=O)N1c2ccc3c(nc(CCn4cccn4)n3CCN3CCC(O)CC3)c2CC[C@@H]1C` [Example 298], for which the IC50 fell in the range of 1 to 1000 µM.

For the compound `COC(=O)N1c2ccc3c(nc(CCn4cccn4)n3CCN3CCC(CO)CC3)c2CC[C@@H]1C` [Example 299], the IC50 fell in the range of 1 to 1000 µM.

For the compound `COC(=O)N1c2ccc3c(nc(CCn4cccn4)n3CCNCC(=O)N3CCCC3)c2CC[C@@H]1C` [Example 300], the concentration for half-maximal inhibition (IC50) lay in the range of 1 to 1000 µM.

Turning to `COC(=O)N1c2ccc3c(nc(CCn4cccn4)n3CCN(C)C3CCOCC3)c2CC[C@@H]1C` [Example 301], the concentration for half-maximal inhibition (IC50) was 1 to 1000 µM.

With `COC(=O)N1c2ccc3c(nc(CCn4cccn4)n3CCN(C)[C@H]3CCOC3)c2CC[C@@H]1C` [Example 302], the IC50 was 1 to 1000 µM.

Turning to `COC(=O)N1c2ccc3c(nc(CCn4cccn4)n3CCN3CC[C@H](C(N)=O)C3)c2CC[C@@H]1C` [Example 303], the IC50 was 1 to 1000 µM.

As for `COC(=O)N1c2ccc3c(nc(CCn4cccn4)n3CCN(C)CC(C)(C)O)c2CC[C@@H]1C` [Example 304], the IC50 lay within 1 to 1000 µM.

For the compound `COC(=O)N1c2ccc3c(nc(CCn4cccn4)n3CCNC3COC3)c2CC[C@@H]1C` [Example 305], the IC50 lay in the range of 1 to 1000 µM.

`COC(=O)N1c2ccc3c(nc(CCn4cccn4)n3CCNCCC#N)c2CC[C@@H]1C` [Example 306]: the half-inhibitory concentration (IC50) was in the range of 1 to 1000 µM.

Turning to `COC(=O)N1c2ccc3c(nc(CCn4cccn4)n3CCNCCN3CCNC3=O)c2CC[C@@H]1C` [Example 307], the half-inhibitory concentration (IC50) lay in the range of 1 to 1000 µM.

For `COC(=O)N1c2ccc3c(nc(CCn4cccn4)n3CCN3CCC(C#N)CC3)c2CC[C@@H]1C` [Example 308], the 50% inhibitory concentration (IC50) was 1 to 1000 µM.

As to `COC(=O)N1c2ccc3c(nc(CCn4cccn4)n3CCN3CC[C@@H](NC(C)=O)C3)c2CC[C@@H]1C` [Example 309], the IC50 fell in the range of 1 to 1000 µM.

As for `COC(=O)N1c2ccc3c(nc(CCn4cccn4)n3CCN3CC[C@H](NC(C)=O)C3)c2CC[C@@H]1C` [Example 310], the IC50 was in the range of 1 to 1000 µM.

For the compound `COC(=O)N1c2ccc3c(nc(CCn4cccn4)n3CCN3CCN(C(C)C)CC3)c2CC[C@@H]1C` [Example 311], the IC50 lay within 1 to 1000 µM.

Turning to `COC(=O)N1c2ccc3c(nc(CCn4cccn4)n3CCN3CCN(C4CC4)CC3)c2CC[C@@H]1C` [Example 312], the IC50 is 1 to 1000 µM.

On to `COC(=O)N1c2ccc3c(nc(CCn4cccn4)n3CCN3CCN(CCO)CC3)c2CC[C@@H]1C` [Example 313], for which the IC50 is 1 to 1000 µM.

For `COC(=O)N1c2ccc3c(nc(CCn4ccccc4=O)n3CCNCc3ccncn3)c2CC[C@@H]1C` [Example 314], the IC50 lay in the range of 1 to 1000 µM.

Turning to `COC(=O)N1c2ccc3c(nc(CCn4ccccc4=O)n3CCNCc3cnn(C)c3)c2CC[C@@H]1C` [Example 315], the IC50 lay in the range of 1 to 1000 µM.

`COC(=O)N1c2ccc3c(nc(CCn4ccccc4=O)n3CCNCc3ccn(C)n3)c2CC[C@@H]1C` [Example 316]: the 50% inhibitory concentration (IC50) was 1 to 1000 µM.

With `COC(=O)N1c2ccc3c(nc(CCn4ccccc4=O)n3CCNCc3ncnn3C)c2CC[C@@H]1C` [Example 317], the half-inhibitory concentration (IC50) was in the range of 1 to 1000 µM.

With `COC(=O)N1c2ccc3c(nc(CCn4ccccc4=O)n3CCNC[C@H]3CCCO3)c2CC[C@@H]1C` [Example 319], the IC50 was 1 to 1000 µM.

As to `COC(=O)N1c2ccc3c(nc(CCn4ccccc4=O)n3CCNCC(=O)N3CCCC3)c2CC[C@@H]1C` [Example 324], the 50% inhibitory concentration (IC50) was 1 to 1000 µM.

On to `COC(=O)N1c2ccc3c(nc(CCn4ccccc4=O)n3CCN(C)C3CCOCC3)c2CC[C@@H]1C` [Example 325], for which the IC50 was 1 to 1000 µM.

For the compound `COC(=O)N1c2ccc3c(nc(CCn4ccccc4=O)n3CCN(C)[C@H]3CCOC3)c2CC[C@@H]1C` [Example 326], the IC50 lay in the range of 1 to 1000 µM.

As to `COC(=O)N1c2ccc3c(nc(CCn4ccccc4=O)n3CCN3CC[C@H](C(N)=O)C3)c2CC[C@@H]1C` [Example 327], the IC50 was 1 to 1000 µM.

Take `COC(=O)N1c2ccc3c(nc(CCn4cccn4)n3CC(=O)N3CC[C@H](NC(C)=O)C3)c2CC[C@@H]1C` [Example 335, methyl (S)-2-(2-(1H-pyrazol-1-yl)ethyl)-3-(2-((S)-3-acetamidopyrrolidin-1-yl)-2-oxoethyl)-7-methyl-3,7,8,9-tetrahydro-6H-imidazo[4,5-f]quinoline-6-carboxylate]: the IC50 lay in the range of 1 to 1000 µM.

With `COC(=O)N1c2ccc3c(nc(CCn4cccn4)n3CC(=O)NCc3ccncn3)c2CC[C@@H]1C` [Example 336], the IC50 was in the range of 1 to 1000 µM.

For `COC(=O)N1c2ccc3c(nc(CCn4cccn4)n3CC(=O)NCc3ncccn3)c2CC[C@@H]1C` [Example 337], the IC50 lay in the range of 1 to 1000 µM.

Regarding `COC(=O)N1c2ccc3c(nc(CCn4cccn4)n3CC(=O)NCCc3ccccn3)c2CC[C@@H]1C` [Example 338], the IC50 was in the range of 1 to 1000 µM.

`COC(=O)N1c2ccc3c(nc(CCn4cccn4)n3CC(=O)NCc3ccnc(O)c3)c2CC[C@@H]1C` [Example 339]: the IC50 lay within 1 to 1000 µM.

Turning to `COC(=O)N1c2ccc3c(nc(CCn4cccn4)n3CC(=O)NCc3ncco3)c2CC[C@@H]1C` [Example 340], the IC50 lay in the range of 1 to 1000 µM.

Regarding `COC(=O)N1c2ccc3c(nc(CCn4cccn4)n3CC(=O)NCc3cnco3)c2CC[C@@H]1C` [Example 342], the IC50 was 1 to 1000 µM.

On to `COC(=O)N1c2ccc3c(nc(CCn4cccn4)n3CC(=O)NCc3nnc(C)n3C)c2CC[C@@H]1C` [Example 343], for which the IC50 lay within 1 to 1000 µM.

As to `COC(=O)N1c2ccc3c(nc(CCn4cccn4)n3CC(=O)NCc3cnn(C)c3)c2CC[C@@H]1C` [Example 344], the IC50 is 1 to 1000 µM.

Consider `COC(=O)N1c2ccc3c(nc(CCn4cccn4)n3CC(=O)NCc3ccn(C)n3)c2CC[C@@H]1C` [Example 345], for which the IC50 was in the range of 1 to 1000 µM.

On to `COC(=O)N1c2ccc3c(nc(CCn4cccn4)n3CC(=O)NCc3cccnc3)c2CC[C@@H]1C` [Example 346], for which the IC50 fell in the range of 1 to 1000 µM.

With `COC(=O)N1c2ccc3c(nc(CCn4cccn4)n3CC(=O)NC[C@H]3CCCO3)c2CC[C@@H]1C` [Example 347], the IC50 fell in the range of 1 to 1000 µM.

For the compound `COC(=O)N1c2ccc3c(nc(CCn4cccn4)n3CC(=O)N[C@H]3CC[C@H](CO)CC3)c2CC[C@@H]1C` [Example 348], the IC50 was in the range of 1 to 1000 µM.

Take `COC(=O)N1c2ccc3c(nc(CCn4cccn4)n3CC(=O)N[C@H](C)CO)c2CC[C@@H]1C` [Example 349]: the IC50 fell in the range of 1 to 1000 µM.

Consider `COC(=O)N1c2ccc3c(nc(CCn4cccn4)n3CC(=O)N(C)CCO)c2CC[C@@H]1C` [Example 350], for which the IC50 lay within 1 to 1000 µM.

`COC(=O)N1c2ccc3c(nc(CCn4cccn4)n3CC(=O)N(C)CC(=O)N(C)C)c2CC[C@@H]1C` [Example 351]: the IC50 lay in the range of 1 to 1000 µM.

Regarding `COC(=O)N1c2ccc3c(nc(CCn4cccn4)n3CC(=O)N3CCC(O)CC3)c2CC[C@@H]1C` [Example 352], the IC50 is 1 to 1000 µM.

For the compound `COC(=O)N1c2ccc3c(nc(CCn4cccn4)n3CC(=O)N3CCC(CO)CC3)c2CC[C@@H]1C` [Example 353], the IC50 was 1 to 1000 µM.

Consider `COC(=O)N1c2ccc3c(nc(CCn4cccn4)n3CC(=O)NCC(=O)N(C)C)c2CC[C@@H]1C` [Example 354], for which the IC50 lay in the range of 1 to 1000 µM.

As to `COC(=O)N1c2ccc3c(nc(CCn4cccn4)n3CC(=O)N(C)C3CCOCC3)c2CC[C@@H]1C` [Example 356], the IC50 fell in the range of 1 to 1000 µM.

As for `COC(=O)N1c2ccc3c(nc(CCn4cccn4)n3CC(=O)NCC3CCOCC3)c2CC[C@@H]1C` [Example 357], the 50% inhibitory concentration (IC50) is 1 to 1000 µM.

Regarding `COC(=O)N1c2ccc3c(nc(CCn4cccn4)n3CC(=O)NC3CCOCC3)c2CC[C@@H]1C` [Example 358], the 50% inhibitory concentration (IC50) is 1 to 1000 µM.

In the case of `COC(=O)N1c2ccc3c(nc(CCn4cccn4)n3CC(=O)N(C)[C@H]3CCOC3)c2CC[C@@H]1C` [Example 359], the half-maximal inhibitory concentration (IC50) fell in the range of 1 to 1000 µM.

`COC(=O)N1c2ccc3c(nc(CCn4cccn4)n3CC(=O)N3CC[C@H](C(N)=O)C3)c2CC[C@@H]1C` [Example 360]: the IC50 was 1 to 1000 µM.

Take `COC(=O)N1c2ccc3c(nc(CCn4cccn4)n3CC(=O)N(C)CC(C)(C)O)c2CC[C@@H]1C` [Example 361]: the 50% inhibitory concentration (IC50) fell in the range of 1 to 1000 µM.

Turning to `COC(=O)N1c2ccc3c(nc(CCn4cccn4)n3CC(=O)NCC3(O)CCC3)c2CC[C@@H]1C` [Example 362], the IC50 fell in the range of 1 to 1000 µM.

Take `COC(=O)N1c2ccc3c(nc(CCn4cccn4)n3CC(=O)NCc3cc(C)no3)c2CC[C@@H]1C` [Example 363]: the IC50 lay in the range of 1 to 1000 µM.

For `COC(=O)N1c2ccc3c(nc(CCn4cccn4)n3CC(=O)NCC3(C)COC3)c2CC[C@@H]1C` [Example 364], the IC50 lay within 1 to 1000 µM.

With `COC(=O)N1c2ccc3c(nc(CCn4cccn4)n3CC(=O)NC3COC3)c2CC[C@@H]1C` [Example 365], the IC50 lay within 1 to 1000 µM.

The values are drawn from patent US11292791B2 (priority 2017, dated 2022).
